Experimental data from patent US20040219202A1, “Pharmaceutical composition comprising lipids comprising a polar and a nonpolar moiety” (priority 2001, published 2004).
“Also recorded” adds a separate entry of the source.

Assays:
[1] = literature statement; cited from earlier work
[2] = test system: Panc-1 cells; assay: Transfection of Panc-1 cells with LMDs (liposome:mu:DNA), β-galactosidase reporter assay; type: cell-based
Experimental: (§1) Purity of the lipids was checked by TLC or HPLC. All lipids were stored as stock solutions in anhydrous CH2Cl2, at concentrations of either 5 mg/ml or 10 mg/ml, at −80° C., under Ar. In order to prepare cationic liposomes, lipids were added to a round-bottomed flask, via syringe, under Ar, and further freshly distilled CH2Cl2 was added, if necessary, to give a concentration of around 2.5 mg/ml. Then, 4 mM HEPES pH 7.0 (1 ml) was added, and the biphasic system was swirled to mix. A liposomal suspension was created by removing the organic solvent under reduced pressure at 25° C., followed by sonication for 2-5 min. in a water bath sonicator. Doubly-distilled water was added, if necessary, to return the total volume to 1 ml. All liposomal solutions were prepared at a final concentration of 5 mg/ml. The pH of the liposomal suspension was checked by pH Boy (Camlab Ltd., Over, Cambridgeshire, UK) and adjusted to pH 7.0±0.1 with concentrated aqueous solutions of HCl and NaOH.
(§2) Liposomes were extruded (Extruder, Northern Upids, Inc., Vancouver, BC, Canada) by passing through two 100 nm polycarbonate filters (Isopore™ Membrane Filters, Millipore (UK) Ltd., Watford, Hertfordshire, UK) ten times. For each preparation, the size distribution of liposomes was measured by photon correlation spectroscopy (PCS) (Coulter® N4 Plus Submicron Particle Sizer, Beckman Coulter, High Wycombe, Buckinghamshire, UK). For phospholipid-containing liposomes, phospholipid concentrations were checked by the Stewart assay.^23 In each case, a final lipid concentration of 4.7±0.1 mg/ml was observed. For non-phospholipid containing liposomes, lipid loss was also inevitable on extrusion. For all fast-extruding liposomal suspensions, total lipid concentration was assumed to be 4.7 mg/ml. For slower extrusions, total lipid concentrations were assumed to be 4.3 mg/ml. Very slowly extruding liposomes were extruded three times only and assumed to be 4.7 mg/ml.
(§3) Plasmid DNA containing the β-galactosidase gene (pNGVL1-nt-beta-gal; 7.53 kbp) was stored as frozen aliquots at −80° C., at a concentration of 1.2 mg/ml; μ (mu) peptide (adenoviral core peptide [H2N-Met-Arg-Arg-Ala-His-His-Arg-Arg-Arg-Arg-Ala-Ser-His-Arg-Arg-Met-Arg-Gly-Gly-CO2H]) was synthesised as described previously,^7 and maintained at 4° C. in aliquots of 1 mg/ml. Mu-DNA complexes were made by adding plasmid DNA to mu in 4 mM HEPES at a ratio of 1:0.6 (w/w) with fast vortexing. LMDs were prepared by complexing mu-DNA particles with cationic liposomes (as prepared above) in a ratio of 1:12 (w/w), such that all LMDs for all formulations were substantially cationic. For each preparation, the size distribution of LMDs was measured by PCS.
Panc-1 cells were maintained in RPMI/10% FCS/1% penicillin-streptomycin (Gibco™, Invitrogen Corporation, Paisley, Scotland, UK) at 37° C./5% CO2 in a humidified atmosphere. Twenty-four hours prior to transfection, 30 000 cells per well were seeded in 48 well microtitre plates (Corning Costar, Merck Ltd., Lutterworth, Leicestershire, UK) in 500 μl medium. As a control, plasmid DNA (0.5 μg in 200 μl medium) was added to a well. As a positive control, 1.5 μl Transfast™ (Promega Corporation, Madison, Wis., USA; prepared according to the supplier's protocol) in 200 μl medium was complexed with plasmid DNA (0.5 μg) and added to a well. 5 μl (0.5 μg DNA) of LMD formulation was added to each well. All experiments were performed in quadruplicate. The plate was swirled for 30 s, and incubated for 1 h at 37° C. Medium was then removed, and 500 μl of fresh medium was added. The cells were incubated at 37° C. for a further 24 h.
Medium was aspirated from the wells and the cell layer was washed with phosphate buffered saline (PBS) (Gibco™). The cells of each well were lysed in 150 μl lysis reagent (prepared according to the supplier's protocol; β-Gal Reporter Gene Assay, Roche Diagnostics GmbH, D-68305 Mannheim, Germany) at room temperature for 30 min. […]

[3] = test system: COS-7 cells; assay: Transfection of COS-7 cells with LMDs (liposome:mu:DNA), β-galactosidase reporter assay; type: cell-based; conditions: for Transfection relative to DOPE (fraction): CDAN:Helper Lipid, summary
Experimental: as §1, §2, §3
COS-7 cells were maintained in DMEM/10% FCS/1% penicillin-streptomycin (Gibco™) at 37° C./5% CO2 in a humidified atmosphere. Twenty-four hours prior to transfection, 10 000 cells per well were seeded in 48-well microtitre plates (Coming Costar) in 500 μl medium. Plasmid DNA and Transfast™ controls were prepared as above. 5 μl (0.5 μg DNA) of LMD formulation was added to each well. All experiments were performed in quadruplicate. The plate was swirled for 30 s, and incubated for 1 h at 37° C. Medium was then removed, and 500 μl of fresh medium was added. The cells were incubated at 37° C. for a further 24 h.
Medium was aspirated from the wells and the cell layer was washed with phosphate buffered saline (PBS) (Gibco™). The cells of each well were lysed in 150 μl lysis reagent (prepared according to the supplier's protocol; β-Gal Reporter Gene Assay, Roche Diagnostics GmbH, D-68305 Mannheim, Germany) at room temperature for 30 min. After lysis, […], 50 μl and 20 μl, of each cell suspension were used for the determination of β-galactosidase activity and for the determination of total cellular protein (to normalise results), respectively.
In the β-gal assay, 100 μl of the substrate reagent was added to 50 μl of the cell suspension in a white 96-well microplate (Coming Costar). […]

[4] = LMDs of CDAN:Helper Lipid, 1:1 liposomes, DOPC-analogues, FIG. 13
[5] = LMDs of CDAN:Helper Lipid, 1:1 liposomes, DOPE-analogues, FIG. 16
[6] = LMDs of CDAN:Helper Lipid, 2:3 liposomes, FIG. 17
[7] = LMDs of CDAN:Helper Lipid, 3:2 liposomes, FIG. 15
[8] = LMDs of CDAN:Helper Lipid, 1:1 liposomes, FIG. 14
[9] = LMDs of DOPE:Cationic Lipid, 1:1 liposomes, FIG. 21
[10] = LMDs of pure DOTAP or DOTAP-analogue liposomes, FIG. 20

Structure (SMILES): CCCCCCCCCCCCC#CC#CCCCCCCCCCC(=O)NCCN(CCNC(=N)N)CCNC(=N)N [BGDA, bisguanidinium-diacetylene]
- In vitro transfection in cationic liposome formulations [1]: highly efficient

Structure (SMILES): CCCCCCCCCCCCCC#CCCC(=O)OC[C@H](COP(=O)([O-])OCC[N+](C)(C)C)OC(=O)CCC#CCCCCCCCCCCCCC [DO(4-yne)PC]
- Transfection (β-galactosidase activity) ([2]; LMDs of CDAN:Helper Lipid, 1:1 (mol/mol) liposomes, DOPC-analogues, FIG. 12): almost complete loss of any transfection ability
- Transfection (β-galactosidase activity) [3, 4]: a fall in transfection ability

Structure (SMILES): CCCCCCCCCCCCCC#CCCC(=O)OC[C@H](COP(=O)(O)OCCN)OC(=O)CCC#CCCCCCCCCCCCCC [DO(4-yne)PE]
- Transfection (β-galactosidase activity) ([2]; CDAN:Helper Lipid, 2:3, repeat, liposomes not fresh, LMDs fresh, FIG. 18): fallen to around that of Transfast
- Transfection (β-galactosidase activity) [2, 5]: transfect well and approximately to the same degree; also recorded: all transfect equally well
- Transfection (β-galactosidase activity) [2, 6]: transfect the best, up to five times better than DOPE
- Transfection (β-galactosidase activity) [2, 7]: transfect very poorly
- Transfection relative to DOPE (fraction) ([3]; 1:1 liposomes): about 1/3
- Fall in transfection on substituting DOPE [3, 8]: about 67%

Structure (SMILES): CCCCCCCCC#CCCCCCCCC(=O)OCC(C[N+](C)(C)C)OC(=O)CCCCCCCC#CCCCCCCCC.COS(=O)(=O)[O-] (stereo not drawn) [DO(9-yne)TAP]
- Transfection (β-galactosidase activity) ([2]; LMDs of Cholesterol:Cationic Lipid, 1:1 liposomes, FIG. 22): transfects as well as DOTAP
- Transfection (β-galactosidase activity) [2, 9]: a small increase in transfection
- Transfection (β-galactosidase activity) [3, 10]: transfects around one and-a-half times better than standard DOTAP; also recorded: transfect as well as DOTAP liposomes

Structure (SMILES): CCCC#CCCCCCCCCCCCCC(=O)OC[C@H](COP(=O)(O)OCCN)OC(=O)CCCCCCCCCCCCC#CCCC [DO(14-yne)PE]
- Transfection (β-galactosidase activity) [2, 5]: transfects around half as well as DOPE
- Transfection (β-galactosidase activity) [2, 6]: transfects the least well out of the monoacetylenic analogues
- Transfection (β-galactosidase activity) [2, 7]: transfect very poorly
- Transfection relative to DOPE (fraction) ([3]; 1:1 liposomes): about 1/3
- Fall in transfection on substituting DOPE [3, 8]: about 67%

Structure (SMILES): CCCC#CCCCCCCCCCCCCC(=O)OCC(C[N+](C)(C)C)OC(=O)CCCCCCCCCCCCC#CCCC.COS(=O)(=O)[O-] (stereo not drawn) [DO(14-yne)TAP]
- Loss of transfection activity on replacing DOTAP ([2]; Cholesterol:Cationic Lipid, 1:1 liposomes, FIG. 22): around 30%
- Transfection (β-galactosidase activity) ([2]; LMDs composed entirely of DOTAP or DOTAP-analogue liposomes, FIG. 19): a six-fold improvement on standard DOTAP; also recorded: transfect up to six times better than DOTAP; also recorded: transfects better than DOTAP
- Transfection (β-galactosidase activity) [2, 9]: a seven-fold increase
- Transfection (β-galactosidase activity) [3, 10]: almost total loss of transfection activity; also recorded: almost no transfection at all

Structure (SMILES): CCCCCCCC/C=C\CCCCCCCC(=O)OC[C@H](COP(=O)([O-])OCC[N+](C)(C)C)OC(=O)CCCCCCC/C=C\CCCCCCCC [DOPC]
- Transfection (β-galactosidase activity) [3, 4]: transfect equally well
- In vitro transfection in cationic liposome formulations [1]: eliminate or severely attenuate transfection

Structure (SMILES): CCCCCCCC/C=C\CCCCCCCC(=O)OCC(COP(=O)(O)OCCN)OC(=O)CCCCCCC/C=C\CCCCCCCC (stereo not drawn) [DOPE, dioleoylphosphatidylethanolamine]
- Transfection (β-galactosidase activity) [2, 5]: transfect well and approximately to the same degree; also recorded: all transfect equally well
- Transfection (β-galactosidase activity) [2, 6]: below that of Transfast
- Transfection (β-galactosidase activity) [2, 7]: transfects around as twice as well as the nearest acetylenic analogue; also recorded: transfects better than all the monoacetylenic analogues
- Transfection (β-galactosidase activity) ([3]; LMDs of CDAN:Helper Lipid, 1:1 liposomes, DOPE-analogues, FIG. 14): transfection levels are high and approximately the same; also recorded: transfect COS-7 cells very well and to a similar degree
